Test results from patent US20250145665A1, “MACROCYCLIC PEPTIDES USEFUL AS MODULATORS OF TNF ALPHA” (Bristol-Myers Squibb Company, priority 2023, published 2025).
Positions of bridges follow the written chain, without caps; N, C: chain ends. Non-standard residues stand in square brackets, D forms with d. Residues, ends and D or L forms follow the SMILES beside them. Bip(4'-COOH) = N[C@@H](Cc1ccc(-c2ccc(C(=O)O)cc2)cc1)C(=O)O; Bip(4'-NHAc) = CC(=O)Nc1ccc(-c2ccc(C[C@H](N)C(=O)O)cc2)cc1; Ala(morpholin-4-yl) = N[C@@H](CN1CCOCC1)C(=O)O; Bip = N[C@@H](Cc1ccc(-c2ccccc2)cc1)C(=O)O; NMeF = CN[C@@H](Cc1ccccc1)C(=O)O; 2Pal = N[C@@H](Cc1ccccn1)C(=O)O; Chg = N[C@H](C(=O)O)C1CCCCC1; Aze = O=C(O)[C@@H]1CCN1; Sar = CNCC(=O)O

The compounds below were run against TNFα (Homo sapiens, UniProt P01375) (assay: TNF-Induced HEK-Blue Assay). Conditions: HEK-Blue-CD40L cells, NF-kB-driven secreted alkaline phosphatase reporter; TNFα 0.5 ng/ml; 18 h; read-out: TNF induced HEK-Blue assay IC50 value.
Chain of TNFα (P01375 77-233 limits assumed): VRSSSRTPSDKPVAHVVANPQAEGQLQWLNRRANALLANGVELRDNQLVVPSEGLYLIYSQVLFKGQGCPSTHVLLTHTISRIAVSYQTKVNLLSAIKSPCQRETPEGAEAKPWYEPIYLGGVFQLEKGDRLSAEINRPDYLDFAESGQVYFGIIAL
Format: cell-based

IC50	SMILES
50 to 200 nM	CC(C)C[C@@H]1NC(=O)[C@H](CCCNC(=N)N)NC(=O)[C@H](C2CCCCC2)NC(=O)[C@@H]2CCCN2C(=O)[C@H](C(C)C)NC(=O)[C@@H](CCCNC(=N)N)NC(=O)[C@H](CC(=O)O)NC(=O)[C@H](Cc2ccccn2)NC(=O)CN(C)C(=O)[C@H](Cc2ccc(-c3ccccc3)cc2)NC(=O)[C@H](Cc2ccc(-c3ccccc3)cc2)NC(=O)[C@H](CN2CCOCC2)NC(=O)CSC[C@@H](C(=O)NCC(N)=O)NC1=O [Example 204] ({CH2CO}-[Ala(morpholin-4-yl)][Bip][Bip][Sar][2Pal]D[dR]VP[Chg]RLCG-NH2; thioether N-13)
50 to 200 nM	CC(C)C[C@@H]1NC(=O)[C@H](CCCNC(=N)N)NC(=O)[C@H](C(C)C)NC(=O)[C@@H]2CCCN2C(=O)[C@H](C(C)C)NC(=O)[C@@H](CCCNC(=N)N)NC(=O)[C@H](CC(=O)O)NC(=O)[C@H](Cc2ccccn2)NC(=O)CN(C)C(=O)[C@H](Cc2ccc(-c3ccccc3)cc2)NC(=O)[C@H](Cc2ccc(-c3ccccc3)cc2)NC(=O)[C@H](CN2CCOCC2)NC(=O)CSC[C@@H](C(=O)NCC(N)=O)NC1=O [Example 205] ({CH2CO}-[Ala(morpholin-4-yl)][Bip][Bip][Sar][2Pal]D[dR]VPVRLCG-NH2; thioether N-13)
< 50 nM	CC(C)C[C@@H]1NC(=O)[C@H](CCCNC(=N)N)NC(=O)[C@H](C2CCCCC2)NC(=O)[C@@H]2CCCN2C(=O)[C@H](C(C)C)NC(=O)[C@@H](CCCNC(=N)N)NC(=O)[C@H](CC(=O)O)NC(=O)[C@@H]2CCCN2C(=O)CN(C)C(=O)[C@H](Cc2ccc(-c3ccccc3)cc2)NC(=O)[C@H](Cc2ccc(-c3ccccc3)cc2)NC(=O)[C@H](CN2CCOCC2)NC(=O)CSC[C@@H](C(=O)NCC(N)=O)NC1=O [Example 206] ({CH2CO}-[Ala(morpholin-4-yl)][Bip][Bip][Sar]PD[dR]VP[Chg]RLCG-NH2; thioether N-13)
200 to 2000 nM	CC(C)C[C@@H]1NC(=O)[C@H](CCCNC(=N)N)NC(=O)[C@H](C2CCCCC2)NC(=O)[C@@H]2CCCN2C(=O)[C@H](C(C)C)NC(=O)[C@H](CCCNC(=N)N)NC(=O)[C@H](CC(=O)O)NC(=O)[C@@H]2CCCN2C(=O)CN(C)C(=O)[C@H](Cc2ccc(-c3ccccc3)cc2)NC(=O)[C@H](Cc2ccc(-c3ccccc3)cc2)NC(=O)[C@H](CN2CCOCC2)NC(=O)CSC[C@@H](C(=O)NCC(N)=O)NC1=O [Example 207] ({CH2CO}-[Ala(morpholin-4-yl)][Bip][Bip][Sar]PDRVP[Chg]RLCG-NH2; thioether N-13)
50 to 200 nM	CC(=O)Nc1ccc(-c2ccc(C[C@@H]3NC(=O)[C@H](Cc4ccc(-c5ccccc5)cc4)NC(=O)[C@H](CN4CCOCC4)NC(=O)CSC[C@@H](C(=O)NCC(N)=O)NC(=O)[C@H](CC(C)C)NC(=O)[C@H](Cc4ccc(O)cc4)NC(=O)[C@H](C(C)C)NC(=O)[C@@H]4CCCN4C(=O)[C@H](C(C)C)NC(=O)[C@H](CCCNC(=N)N)NC(=O)[C@H](CC(=O)O)NC(=O)[C@H](Cc4ccccn4)NC(=O)CN(C)C3=O)cc2)cc1 [Example 208] ({CH2CO}-[Ala(morpholin-4-yl)][Bip][Bip(4'-NHAc)][Sar][2Pal]DRVPVYLCG-NH2; thioether N-13)
200 to 2000 nM	CC(C)C[C@@H]1NC(=O)[C@H](Cc2ccc(O)cc2)NC(=O)[C@H](C2CCCCC2)NC(=O)[C@@H]2CCCN2C(=O)[C@H](C(C)C)NC(=O)[C@@H](CCCNC(=N)N)NC(=O)[C@H](CC(=O)O)NC(=O)[C@@H]2CCCN2C(=O)CN(C)C(=O)[C@H](Cc2ccc(-c3ccccc3)cc2)NC(=O)[C@H](Cc2ccc(-c3ccccc3)cc2)NC(=O)[C@H](CN2CCOCC2)NC(=O)CSC[C@@H](C(=O)NCC(N)=O)NC1=O [Example 209] ({CH2CO}-[Ala(morpholin-4-yl)][Bip][Bip][Sar]PD[dR]VP[Chg]YLCG-NH2; thioether N-13)
< 50 nM	CC(=O)Nc1ccc(-c2ccc(C[C@@H]3NC(=O)[C@H](Cc4ccc(-c5ccccc5)cc4)NC(=O)[C@H](CN4CCOCC4)NC(=O)CSC[C@@H](C(=O)NCC(N)=O)NC(=O)[C@H](CC(C)C)NC(=O)[C@H](Cc4ccc(O)cc4)NC(=O)[C@H](C4CCCCC4)NC(=O)[C@@H]4CCCN4C(=O)[C@H](C(C)C)NC(=O)[C@H](CCCNC(=N)N)NC(=O)[C@H](CC(=O)O)NC(=O)[C@@H]4CCCN4C(=O)CN(C)C3=O)cc2)cc1 [Example 210] ({CH2CO}-[Ala(morpholin-4-yl)][Bip][Bip(4'-NHAc)][Sar]PDRVP[Chg]YLCG-NH2; thioether N-13)
200 to 2000 nM	CC(=O)Nc1ccc(-c2ccc(C[C@@H]3NC(=O)[C@H](Cc4ccc(-c5ccccc5)cc4)NC(=O)[C@H](CN4CCOCC4)NC(=O)CSC[C@@H](C(=O)NCC(N)=O)NC(=O)[C@H](CC(C)C)NC(=O)[C@H](Cc4cnc[nH]4)NC(=O)[C@H](C(C)C)NC(=O)[C@@H]4CCCN4C(=O)[C@H](C(C)C)NC(=O)[C@@H](CCCNC(=N)N)NC(=O)[C@H](CC(=O)O)NC(=O)[C@H](Cc4cnc[nH]4)NC(=O)CN(C)C3=O)cc2)cc1 [Example 211] ({CH2CO}-[Ala(morpholin-4-yl)][Bip][Bip(4'-NHAc)][Sar]HD[dR]VPVHLCG-NH2; thioether N-13)
< 50 nM	CC(=O)Nc1ccc(-c2ccc(C[C@@H]3NC(=O)[C@H](Cc4ccc(-c5ccccc5)cc4)NC(=O)[C@H](CN4CCOCC4)NC(=O)CSC[C@@H](C(=O)NCC(N)=O)NC(=O)[C@H](CC(C)C)NC(=O)[C@H](CCCNC(=N)N)NC(=O)[C@H](C(C)C)NC(=O)[C@@H]4CCCN4C(=O)[C@H](C(C)C)NC(=O)[C@@H](CCCNC(=N)N)NC(=O)[C@H](CC(=O)O)NC(=O)[C@H](Cc4cnc[nH]4)NC(=O)CN(C)C3=O)cc2)cc1 [Example 212] ({CH2CO}-[Ala(morpholin-4-yl)][Bip][Bip(4'-NHAc)][Sar]HD[dR]VPVRLCG-NH2; thioether N-13)
< 50 nM	CC(=O)Nc1ccc(-c2ccc(C[C@@H]3NC(=O)[C@H](Cc4ccc(-c5ccccc5)cc4)NC(=O)[C@H](CN4CCOCC4)NC(=O)CSC[C@@H](C(=O)NCC(N)=O)NC(=O)[C@H](CC(C)C)NC(=O)[C@H](Cc4cnc[nH]4)NC(=O)[C@H](C(C)C)NC(=O)[C@@H]4CCCN4C(=O)[C@H](C(C)C)NC(=O)[C@@H](CCCNC(=N)N)NC(=O)[C@H](CC(=O)O)NC(=O)[C@H](Cc4ccc(O)cc4)NC(=O)CN(C)C3=O)cc2)cc1 [Example 213] ({CH2CO}-[Ala(morpholin-4-yl)][Bip][Bip(4'-NHAc)][Sar]YD[dR]VPVHLCG-NH2; thioether N-13)
200 to 2000 nM	CC(C)C[C@@H]1NC(=O)[C@H](Cc2ccccc2)NC(=O)[C@H](C(C)C)NC(=O)[C@@H]2CCCN2C(=O)[C@H](C(C)C)NC(=O)[C@@H](CCCNC(=N)N)NC(=O)[C@H](CC(=O)O)NC(=O)[C@H](Cc2ccccc2)NC(=O)CN(C)C(=O)[C@H](Cc2ccc(-c3ccccc3)cc2)NC(=O)[C@H](Cc2ccc(-c3ccc(C(=O)O)cc3)cc2)NC(=O)[C@H](CN2CCOCC2)NC(=O)CSC[C@@H](C(=O)NCC(N)=O)NC1=O [Example 216] ({CH2CO}-[Ala(morpholin-4-yl)][Bip(4'-COOH)][Bip][Sar]FD[dR]VPVFLCG-NH2; thioether N-13)
50 to 200 nM	CC(=O)Nc1ccc(-c2ccc(C[C@@H]3NC(=O)[C@H](Cc4ccc(-c5ccccc5)cc4)NC(=O)[C@H](CN4CCOCC4)NC(=O)CSC[C@@H](C(=O)NCC(N)=O)NC(=O)[C@H](CC(C)C)NC(=O)[C@H](Cc4ccccc4)NC(=O)[C@H](C(C)C)NC(=O)[C@@H]4CCN4C(=O)[C@H](C(C)C)NC(=O)[C@@H](CCCNC(=N)N)NC(=O)[C@H](CC(=O)O)NC(=O)[C@H](Cc4ccccc4)NC(=O)CN(C)C3=O)cc2)cc1 [Example 217] ({CH2CO}-[Ala(morpholin-4-yl)][Bip][Bip(4'-NHAc)][Sar]FD[dR]V[Aze]VFLCG-NH2; thioether N-13)
50 to 200 nM	CC(=O)Nc1ccc(-c2ccc(C[C@@H]3NC(=O)[C@H](Cc4ccc(-c5ccccc5)cc4)NC(=O)[C@H](CN4CCOCC4)NC(=O)CSC[C@@H](C(=O)NCC(N)=O)NC(=O)[C@H](CC(C)C)NC(=O)[C@H](CCCNC(=N)N)NC(=O)[C@H](C4CCCCC4)NC(=O)[C@@H]4CCCN4C(=O)[C@H](CC(N)=O)NC(=O)[C@@H](CCCNC(=N)N)NC(=O)[C@H](CC(=O)O)NC(=O)[C@H](Cc4ccccn4)NC(=O)CN(C)C3=O)cc2)cc1 [Example 218] ({CH2CO}-[Ala(morpholin-4-yl)][Bip][Bip(4'-NHAc)][Sar][2Pal]D[dR]NP[Chg]RLCG-NH2; thioether N-13)
< 50 nM	CC(C)C[C@@H]1NC(=O)[C@H](Cc2ccccc2)N(C)C(=O)[C@H](C(C)C)NC(=O)[C@@H]2CCCN2C(=O)[C@H](C(C)C)NC(=O)[C@@H](CCCNC(=N)N)NC(=O)[C@H](CC(=O)O)NC(=O)[C@H](Cc2ccc(O)cc2)NC(=O)CN(C)C(=O)[C@H](Cc2ccc(-c3ccccc3)cc2)NC(=O)[C@H](Cc2ccc(-c3ccc(C(=O)O)cc3)cc2)NC(=O)[C@H](CN2CCOCC2)NC(=O)CSC[C@@H](C(=O)NCC(N)=O)NC1=O [Example 220] ({CH2CO}-[Ala(morpholin-4-yl)][Bip(4'-COOH)][Bip][Sar]YD[dR]VPV[NMeF]LCG-NH2; thioether N-13)
< 50 nM	CC(=O)Nc1ccc(-c2ccc(C[C@@H]3NC(=O)[C@H](Cc4ccc(-c5ccccc5)cc4)NC(=O)[C@H](CN4CCOCC4)NC(=O)CSC[C@@H](C(=O)NCC(N)=O)NC(=O)[C@H](CC(C)C)NC(=O)[C@H](Cc4ccc(O)cc4)NC(=O)[C@H](C(C)C)NC(=O)[C@@H]4CCN4C(=O)[C@H](C(C)C)NC(=O)[C@@H](CCCNC(=N)N)NC(=O)[C@H](CC(=O)O)NC(=O)[C@H](Cc4ccccc4)NC(=O)CN(C)C3=O)cc2)cc1 [Example 221] ({CH2CO}-[Ala(morpholin-4-yl)][Bip][Bip(4'-NHAc)][Sar]FD[dR]V[Aze]VYLCG-NH2; thioether N-13)
< 50 nM	CC(=O)Nc1ccc(-c2ccc(C[C@@H]3NC(=O)[C@H](Cc4ccc(-c5ccccc5)cc4)NC(=O)[C@H](CN4CCOCC4)NC(=O)CSC[C@@H](C(=O)NCC(N)=O)NC(=O)[C@H](CC(C)C)NC(=O)[C@H](Cc4ccccn4)NC(=O)[C@H](C(C)C)NC(=O)[C@@H]4CCCN4C(=O)[C@H](C(C)C)NC(=O)[C@@H](CCCNC(=N)N)NC(=O)[C@H](CC(=O)O)NC(=O)[C@H](Cc4ccc(O)cc4)NC(=O)CN(C)C3=O)cc2)cc1 [Example 222] ({CH2CO}-[Ala(morpholin-4-yl)][Bip][Bip(4'-NHAc)][Sar]YD[dR]VPV[2Pal]LCG-NH2; thioether N-13)
